{"source": "patent US10239957B2", "about": "“Peptide containing conjugates for dual molecular delivery of oligonucleotides” (Merck Sharp & Dohme Corp., priority 2013, dated 2019)", "key": {"[1]": {"assay": "Lethality observed on in vivo dosing in mice", "design": "key: *: lethal at this dose", "protocol": "(§1) Female CD-1 mice (Charles River) were injected in accordance with either a sequential dosing paradigm or a co-dosing paradigm. In the sequential dosing paradigm, the targeted siRNA (SCE) is dosed at t=0 and the targeted peptide is separately dosed up to 2 hr before the SCE (−2 hr) or up to 24 hr after the SCE (+24 hr). In the co-dosing paradigm, the SCE and peptides are co-formulated and dosed together in the same formulation as a single injection at t=0. The mice were dosed either by intravenous (i.v.) or subcutaneous (s.c.) injection of SCE and peptide. For the i.v. doses, the compounds were injected into the tail vein of the mice. For the s.c. doses, the compounds were injected in the subcutaneous space on the back of the mouse between the shoulder blades. At the indicated harvest times (measured from t=0 when the siRNA was dosed, regardless of when the peptide was dosed), the animals were sacrificed and 3 mm liver punches were collected, preserved in RNAlater (Ambion), and stored at 4° C. Separate 5 mm liver punches were collected, placed in 96-well plates, frozen on dry ice, and stored at −80° C. until use."}, "CTNNB1 [2]": {"system": "CTNNB1", "assay": "In vivo evaluation in mice: liver mRNA knockdown measurement", "details": "for In vivo mRNA knockdown: mice", "protocol": "as §1\nThe 3 mm liver punches were removed from RNAlater and homogenized in Trizol (Invitrogen) using a bead mill tissue lyser (Qiagen); disruption was performed for two 5-minute cycles at 30 Hz. RNA extraction was performed using 1-bromo-2-chloropropane (Acros Organics) and total RNA was isolated from the aqueous phase using the MagMax RNA isolation method (Ambion). […] TaqMan qPCR analysis was performed with an ABI 7900 Real-Time PCR System using TaqMan Fast Advanced Master Mix (Applied Biosystems). All TaqMan probes and primers for CTNNB1 and PPIB (housekeeping gene) were purchased from Applied Biosystems as pre-validated gene expression assays. Results are calculated by the comparative Ct method, where the difference between the CTNNB1 Ct value and the PPIB Ct value (ΔCt) is calculated and then further normalized relative to the PBS control by taking a second difference (ΔΔCt), as described previously (1)."}, "CTNNB1 [3]": {"system": "CTNNB1", "assay": "In vitro DMD assay: mRNA silencing enhancement by peptide conjugates after siRNA-IV treatment", "format": "cell-based", "details": "primary mouse hepatocytes, siRNA-IV 125 nM baseline", "how_it_was_run": "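RT-qPCR read-out, PPIB-normalized (dddCt), gave silencing enhancement versus 125 nM siRNA-IV alone and untreated cells. Beforehand, cultured primary mouse hepatocytes received siRNA-IV for 1 h, then graded peptide-conjugate doses for ~16 h, followed by washout and a further 24 h incubation.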"}, "[4]": {"assay": "siRNA metabolic stability (order stated for FIG. 6)", "details": "order siRNA-I>siRNA-V>siRNA-VI"}, "RISC": {"target": "T1, RISC (Mus musculus, UniProt Q8CJG0)", "T1 construct": "from tissue; host or cells: liver of female CD-1 mice (5 mm liver punches)", "T1 sequence (Q8CJG0 whole entry)": "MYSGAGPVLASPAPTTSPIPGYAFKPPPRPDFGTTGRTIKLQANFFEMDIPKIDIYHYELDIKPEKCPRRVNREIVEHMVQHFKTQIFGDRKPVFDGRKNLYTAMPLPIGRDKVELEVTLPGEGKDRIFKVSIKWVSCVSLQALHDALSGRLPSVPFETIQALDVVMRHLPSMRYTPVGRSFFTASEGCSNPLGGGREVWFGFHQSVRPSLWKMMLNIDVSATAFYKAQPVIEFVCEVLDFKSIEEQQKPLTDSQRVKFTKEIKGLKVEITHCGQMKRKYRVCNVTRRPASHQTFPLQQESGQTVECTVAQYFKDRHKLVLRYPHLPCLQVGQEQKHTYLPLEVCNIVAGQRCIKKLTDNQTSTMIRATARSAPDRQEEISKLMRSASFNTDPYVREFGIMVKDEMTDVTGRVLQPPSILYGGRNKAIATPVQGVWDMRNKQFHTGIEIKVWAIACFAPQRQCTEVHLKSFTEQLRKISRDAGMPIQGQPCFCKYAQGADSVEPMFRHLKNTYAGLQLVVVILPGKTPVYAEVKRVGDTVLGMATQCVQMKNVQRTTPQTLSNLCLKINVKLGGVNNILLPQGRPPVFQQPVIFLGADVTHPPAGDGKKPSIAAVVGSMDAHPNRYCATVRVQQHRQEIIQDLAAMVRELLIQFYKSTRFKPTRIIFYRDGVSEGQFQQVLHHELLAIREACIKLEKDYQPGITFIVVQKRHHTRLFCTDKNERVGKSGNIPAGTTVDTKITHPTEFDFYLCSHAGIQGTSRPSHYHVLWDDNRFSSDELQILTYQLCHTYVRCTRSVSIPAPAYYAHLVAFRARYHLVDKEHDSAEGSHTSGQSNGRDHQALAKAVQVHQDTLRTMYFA", "assay": "Quantitation of siRNA bound to RISC (RISC loading) in liver", "format": "in vivo, mice", "details": "siRNA with vinyl phosphonate vs siRNA-I", "protocol": "as §1, with “use. […]” for “use.”"}, "[5]": {"details": "TGN-L-siRNA-III 0.5 mg/kg IV, peptide 25 mg/kg IV 15 min after siRNA"}, "[6]": {"details": "TGN-L-siRNA-III 0.5 mg/kg IV, peptide 2 mg/kg IV 15 min after siRNA"}, "[7]": {"details": "TGN-L-siRNA-III 0.5 mg/kg IV, peptide 10 mg/kg IV 15 min after siRNA"}, "[8]": {"details": "TGN-L-siRNA-III 0.25 mg/kg IV, peptide 50 mg/kg IV 15 min after siRNA"}}, "note": "In the oligonucleotide strings, read from the 5' end, every base follows the letter of its sugar. An asterisk marks phosphorothioate; unmarked linkages are phosphodiester. Other units and linkages are bracketed, terminal groups are in braces. A string of capitals states the bases alone. Where no end group is shown, it is not given here. [ ]: non-standard residue; d: D form. {NH2C6-invAb} = cap: inverted abasic residue carrying an aminohexyl phosphate (attachment handle); [invAb] = inverted abasic unit; m = 2'-O-methyl; f = 2'-fluoro"}
{"substance": "TGN-S-S-SEQ ID NO: 1248 (D) (C[dF][dL][dE][dE][dL][dW][dE][dL][dL][dE][dH][dL][dL]; not fully specified (residue 1); listed as Homo sapiens)", "values": [{"measurement": "Lethality mark at targeted peptide dose", "setting": "[1]; [5]", "value": "25*"}, {"measurement": "In vivo mRNA knockdown", "setting": "CTNNB1 [2]; [6]", "value": 42, "unit": "%"}, {"measurement": "In vivo mRNA knockdown", "setting": "CTNNB1 [2]; [7]", "value": 74, "unit": "%"}, {"measurement": "In vivo mRNA knockdown", "setting": "CTNNB1 [2]; [5]", "value": 58, "unit": "%"}]}
{"substance": "TGN-S-S-SEQ ID NO: 1419 (D) (C[dF][dL][dE][dE][dL][dW]G[dL][dL][dE][dH][dL][dL]; not fully specified (residue 1); listed as Homo sapiens)", "values": [{"measurement": "Lethality mark at targeted peptide dose", "setting": "[1]; [5]", "value": "25*"}, {"measurement": "In vivo mRNA knockdown", "setting": "CTNNB1 [2]; [6]", "value": 43, "unit": "%"}, {"measurement": "In vivo mRNA knockdown", "setting": "CTNNB1 [2]; [7]", "value": 78, "unit": "%"}, {"measurement": "In vivo mRNA knockdown", "setting": "CTNNB1 [2]; [5]", "value": 76, "unit": "%"}]}
{"substance": "TGN-S-S-SEQ ID NO: 1654 (D) (CG[dL][dL][dE][dE][dI][dE][dE][dL][dL][dE][dE]G[dL][dE][dN][dL][dI][dD][dW]G[dN][dS]; not fully specified (residue 1); listed as Homo sapiens)", "values": [{"measurement": "Lethality mark at targeted peptide dose", "setting": "[1]; [8]", "value": "50*"}, {"measurement": "In vivo mRNA knockdown", "setting": "CTNNB1 [2]; TGN-L-siRNA-III 0.25 mg/kg IV, peptide 2 mg/kg IV 15 min after siRNA", "value": 51, "unit": "%"}, {"measurement": "In vivo mRNA knockdown", "setting": "CTNNB1 [2]; TGN-L-siRNA-III 0.25 mg/kg IV, peptide 10 mg/kg IV 15 min after siRNA", "value": 72, "unit": "%"}, {"measurement": "In vivo mRNA knockdown", "setting": "CTNNB1 [2]; [8]", "value": 65, "unit": "%"}, {"measurement": "In vitro dddCt (vs. baseline SCE dose)", "setting": "CTNNB1 [3]; Targeted peptide dose 25 nM", "value": "−0.39"}, {"measurement": "In vitro dddCt (vs. baseline SCE dose)", "setting": "CTNNB1 [3]; Targeted peptide dose 125 nM", "value": "−1.05"}, {"measurement": "In vitro dddCt (vs. baseline SCE dose)", "setting": "CTNNB1 [3]; Targeted peptide dose 3125 nM", "value": "−1.48"}, {"measurement": "In vitro dddCt (vs. baseline SCE dose)", "setting": "CTNNB1 [3]; Targeted peptide dose 15625 nM", "value": "−1.61"}]}
{"substance": "siRNA-I: CTNNB1 siRNA; passenger SEQ ID NO 1803, guide SEQ ID NO 1804 (sense CUGUUGGAUUGAUUCGAAAUU; guide UUUCGAAUCAAUCCAACAGUU; (1)..(1) aminohexyl phosphate inverted abasic cap; (1)..(2) 2′-O-methyl; (3)..(3) 2′-deoxy-2′-fluoro; (4)..(5) 2′-O-methyl; (6)..(8) 2′-deoxy-2′-fluoro; (9)..(10) 2′-O-methyl; (11)..(12) 2′-deoxy-2′-fluoro; (13)..(15) 2′-O-methyl; (16)..(19) 2′-deoxy-2′-fluoro; (20)..(21) 2′-O-methyl; (20)..(21) phosphorothioate internucleotide linkage; (21)..(21) inverted abasic cap; (1)..(1) 2′-O-methyl; (1)..(2) phosphorothioate internucleotide linkage; (2)..(2) 2′-deoxy-2′-fluoro; (2)..(3) phosphorothioate internucleotide linkage; (3)..(3) 2′-O-methyl; (3)..(4) phosphorothioate internucleotide linkage)", "values": [{"measurement": "Effect of timing of peptide dose on activity, FIG. 6", "setting": "CTNNB1 [2]; peptide within 2 hr before up to 24 hr after siRNA dose", "value": "does not significantly change the activity"}, {"measurement": "siRNA (metabolic) stability", "setting": "[4]", "value": "highly stable"}]}
{"substance": "siRNA-III: CTNNB1 siRNA; passenger SEQ ID NO 1803, guide SEQ ID NO 1806 (vinylPmoeT) (sense CUGUUGGAUUGAUUCGAAAUU; guide TUUCGAAUCAAUCCAACAGUU; vinylphosphonate MOE T; (1)..(1) aminohexyl phosphate inverted abasic cap; (1)..(2) 2′-O-methyl; (3)..(3) 2′-deoxy-2′-fluoro; (4)..(5) 2′-O-methyl; (6)..(8) 2′-deoxy-2′-fluoro; (9)..(10) 2′-O-methyl; (11)..(12) 2′-deoxy-2′-fluoro; (13)..(15) 2′-O-methyl; (16)..(19) 2′-deoxy-2′-fluoro; (20)..(21) 2′-O-methyl; (20)..(21) phosphorothioate internucleotide linkage; (21)..(21) inverted abasic cap; (1)..(1) terminal vinyl phosphate; (1)..(1) 2′-methoxyethoxy; (2)..(21) ribonucleotide unmodified or modified as described for this sequence; (2)..(2) 2′-deoxy-2′-fluoro; (3)..(3) 2′-O-methyl; (4)..(4) …)", "values": [{"measurement": "Time course of RISC loading (FIG. 5): rate of RISC loading", "setting": "RISC", "value": "faster RISC loading"}]}
{"substance": "siRNA-V: CTNNB1 siRNA; passenger SEQ ID NO 1803, guide SEQ ID NO 1808 (sense {NH2C6-invAb}-mCmUfGmUmUfGfGfAmUmUfGfAmUmUmCfGfAfAfAmU*mU[invAb]; guide mUfUmUfCmGfAmAfUmCfAmAfUmCfCmAfAmCfAmGmU*mU)", "values": [{"measurement": "Activity, FIG. 6", "setting": "CTNNB1 [2]; longer separation times (4-24 hr post-siRNA dose)", "value": "background levels"}, {"measurement": "Activity (KD), FIG. 6", "setting": "CTNNB1 [2]; peptide dose times within 2 hr (before or after) the siRNA", "value": "~25", "unit": "%"}, {"measurement": "siRNA (metabolic) stability", "setting": "[4]", "value": "moderately stable"}]}
{"substance": "siRNA-VI: CTNNB1 siRNA; passenger SEQ ID NO 1803, guide SEQ ID NO 1809 (sense {NH2C6-invAb}-mCmUfGmUmUfGfGfAmUmUfGfAmUmUmCfGfAfAfAmU*mU[invAb]; guide fUfUfUmCfGfAfAmUmCfAfAmUmCfCfAfAmCfAfGmU*mU)", "values": [{"measurement": "Activity, FIG. 6", "setting": "CTNNB1 [2]; DMD with peptide, more unstable siRNA", "value": "background levels"}, {"measurement": "siRNA (metabolic) stability", "setting": "[4]", "value": "more unstable"}]}
